Publication PMC9679999, “A Useful Guide to Lectin Binding: Machine-Learning Directed Annotation of 57 Unique Lectin Specificities” (ACS Chemical Biology, 2022)

Assays:
Assay type in all cases: binding
[1] = target: T1, Psophocarpus tetragonolobus lectin-I (PTL-I/PTA-I) (Psophocarpus tetragonolobus, UniProt O24313); assay: CFG glycan microarray v5, biotinylated lectin, Cy5-streptavidin
T1 construct: gene WBAI
T1 sequence (O24313 1-242): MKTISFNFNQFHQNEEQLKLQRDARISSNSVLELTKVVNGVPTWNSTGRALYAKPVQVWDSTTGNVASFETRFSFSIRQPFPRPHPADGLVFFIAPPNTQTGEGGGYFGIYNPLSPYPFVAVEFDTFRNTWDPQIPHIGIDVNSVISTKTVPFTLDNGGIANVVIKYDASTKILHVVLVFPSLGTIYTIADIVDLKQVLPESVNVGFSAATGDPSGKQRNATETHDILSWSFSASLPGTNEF

[2] = target: T2, Cholera Toxin B Subunit (CTB) (Vibrio cholerae, UniProt P01556)
T2 construct: gene ctxB

[3] = target: T3, Hippeastrum hybrid Lectin (HHA, HHL) (Hippeastrum hybrid cultivar, UniProt Z9FHC8O5N0); assay: CFG glycan microarray v5, biotinylated lectin, Cy5-streptavidin
T3 construct: commercial lectin (EY and Vector), biotinylated
T3 sequence (Z9FHC8O5N0 1-108): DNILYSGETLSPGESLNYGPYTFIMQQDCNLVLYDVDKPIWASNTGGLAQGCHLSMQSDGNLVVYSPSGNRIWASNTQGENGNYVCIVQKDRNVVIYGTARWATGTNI

[4] = target: Marasmius oreades agglutinin (MOA) (Marasmius oreades, UniProt Q8X123); assay: as above
Marasmius oreades agglutinin (MOA), sequence (Q8X123 entry or part of it): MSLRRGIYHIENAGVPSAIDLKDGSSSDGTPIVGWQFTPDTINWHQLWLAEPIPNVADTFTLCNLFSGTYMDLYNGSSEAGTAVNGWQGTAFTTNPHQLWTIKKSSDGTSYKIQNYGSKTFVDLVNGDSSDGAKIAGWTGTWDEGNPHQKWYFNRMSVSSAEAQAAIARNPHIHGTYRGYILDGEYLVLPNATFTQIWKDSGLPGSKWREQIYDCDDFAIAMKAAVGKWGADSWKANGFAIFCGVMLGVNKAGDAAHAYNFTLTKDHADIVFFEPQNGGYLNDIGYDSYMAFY

T2 sequence (P01556 22-124 limits assumed): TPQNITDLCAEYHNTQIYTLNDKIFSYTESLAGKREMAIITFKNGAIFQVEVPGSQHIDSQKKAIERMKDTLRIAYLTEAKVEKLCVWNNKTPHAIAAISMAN

## CC(=O)N[C@H]1[C@@H](O[C@H]2[C@@H](O)[C@@H](CO)OC(O)[C@@H]2O[C@@H]2O[C@@H](C)[C@@H](O)[C@@H](O)[C@@H]2O)O[C@H](CO)[C@H](O)[C@@H]1O (stereo partly shown) [blood group A trisaccharide]
[1]
  CFG glycan microarray v5, biotinylated lectin, Cy5-streptavidin: we found blood group A trisaccharides

## CC(=O)N[C@H]1[C@H](O[C@@H]2[C@H](O[C@]3(C(=O)O)C[C@H](O)[C@@H](NC(C)=O)[C@H]([C@H](O)[C@H](O)CO)O3)[C@@H](O)[C@H](O[C@H]3[C@H](O)[C@@H](O)C(O)O[C@@H]3CO)O[C@@H]2CO)O[C@H](CO)[C@H](O)[C@@H]1O[C@@H]1O[C@H](CO)[C@H](O)[C@H](O)[C@H]1O (stereo partly shown) [GM1]
[2]
  CFG glycan microarray v5, biotinylated lectin, Cy5-streptavidin: Our analysis found only two glycan binders, GM1 and fucosylated GM1

## OC[C@H]1O[C@H](OC[C@H]2OC(O)[C@@H](O)[C@@H](O[C@H]3O[C@H](CO)[C@@H](O)[C@H](O)[C@@H]3O)[C@@H]2O)[C@@H](O)[C@@H](O)[C@@H]1O (stereo partly shown) [mannose core trisaccharide]
[3]
  CFG glycan microarray v5, biotinylated lectin, Cy5-streptavidin: This lectin shows the highest affinity for the mannose core trisaccharide

## C[C@@H]1O[C@@H](O[C@H]2C(O)O[C@H](CO)[C@H](O)[C@@H]2O[C@H]2O[C@H](CO)[C@H](O)[C@H](O)[C@H]2O)[C@@H](O)[C@H](O)[C@@H]1O (stereo partly shown) [B trisaccharide]
[4]
  CFG glycan microarray v5, biotinylated lectin, Cy5-streptavidin: This motif lies within the B trisaccharide, which is preferentially bound by this lectin
